# System: epithelial breast carcinoma cell line (MDAMB-435)
# Assay: Antiproliferative activity (growth inhibition, MTT), epithelial breast carcinoma cell line MDAMB-435
# Assay type: cell-based
# Conditions: Homo sapiens, MDA-MB-435, 120 h, 5 days post drug addition, 0.1% DMSO, read-out: IC50 (growth inhibition of MDAMB-435 cells)
# Protocol: The epithelial breast carcinoma cell line (MDAMB-435) was purchased from ATCC (American Type Cell Culture Collection) and was grown in culture medium as recommended by ATCC. For analysis of the effect of various compounds of formula I on the growth of these cells, the cells were plated at a concentration of 1500 cells/well in a 96 well tissue culture plate ("test plate"). The day after the cells were plated, the compounds to be analyzed were dissolved in 100% DMSO (dimethyl sulfoxide) to yield at 10 mM stock solution. Each compound was diluted in H2 O to 1 mM and was added to triplicate wells in the first row of a 96 well master plate containing medium to yield a final concentration of 40 μM. The compounds were then serially diluted in medium in the "master plate". The diluted compound(s) were then transferred to test plates containing cells. A row of vehicle "control cells" received DMSO. The final concentration of DMSO in each well was 0.1%. 5 days post drug addition, the plate was analyzed as described below.
# MTT (3-(4-5 methyl thiazole-2-yl)-2,5-diphenyl tetrazolium bromide; thiazolyl blue) was added to each well to yield a final concentration of 1 mg/ml. The plate was then incubated at 37° C. for 21/2-3 hours. The MTT-containing medium was then removed and 50 μl of 100% ethanol was added to each well to dissolve the formazan. The absorbences were then read using an automated plate reader (Bio-tek microplate reader). IC50 s were calculated using the Reed and Munsch equation, see Am. J. Hygiene Vol. 27 pgs. 493-497,1938.
row,Compound,IC50
1,"Cn1cc(C2=C(c3cn(C)c4cc(-c5ccns5)ccc34)C(=O)NC2=O)c2ccccc21 [Example 2n, 3-(6-Isothiazol-5-yl-1-methyl-1H-indol-3-yl)-4-(1-methyl-1H-indol-3-yl)-pyrrole-2,5-dione]",40 nM
2,"Cn1cc(C2=C(c3cn(C)c4cc([N+](=O)[O-])ccc34)C(=O)NC2=O)c2ccc(-c3ncc[nH]3)cc21 [Example 2o, 3-[6-(1H-Imidazol-2-yl)-1-methyl-1H-indol-3-yl]-4-(1-methyl-6-nitro-1H-indol-3-yl)-pyrrole-2,5-dione]",40 nM
3,"Cn1cc(C2=C(c3cn(C)c4cc(-c5cccs5)ccc34)C(=O)NC2=O)c2ccccc21 [Example 3, 3-(1-Methyl-1H-indol-3-yl)-4-(1-methyl-6-thiophen-2-yl-1H-indol-3-yl)pyrrole-2,5 dione]",40 nM
4,"Cn1cc(C2=C(c3cn(C)c4cc(-c5ccsc5)ccc34)C(=O)NC2=O)c2ccccc21 [Example 5, 3-(1-Methyl-1H-indol-3-yl)-4-(1-methyl-6-thiophen-3-yl-1H-indol-3-yl)pyrrole-2,5-dione]",40 nM
5,"Cn1cc(C2=C(c3cn(C)c4cc([N+](=O)[O-])ccc34)C(=O)NC2=O)c2ccc(-c3ccsc3)cc21 [Example 6, 3-(1-methyl-6-nitro-1H-indol-3-yl)-4-(1-methyl-6-thiophen-3-yl-1H-indol-3-yl)pyrrole-2,5-dione]",40 nM
6,"Cn1cc(C2=C(c3cn(C)c4cc(-n5ccnc5)ccc34)C(=O)NC2=O)c2ccccc21 [Example 7, 3-(6-imidazol-1-yl-1-methyl-1H-indol-3-yl)-4-(1-methyl-1H-indol-3-yl)-pyrrole-2,5-dione]",60 nM
7,"COc1ccc2c(C3=C(c4cn(C)c5cc(-n6ccnc6)ccc45)C(=O)NC3=O)cn(C)c2c1 [Example 9, 3-(6-Imidazol-1-yl-1-methyl-1H-indol-3-yl)-4-(6-methoxy-1-methyl-1H-indol-3-yl)-pyrrole-2,5-dione]",60 nM
8,"Cn1cc(C2=C(c3cn(C)c4cc(N5CCOCC5)ccc34)C(=O)NC2=O)c2ccccc21 [Example 11, 3-(1-Methyl-1H-indol-3-yl)-4-(1-methyl-6-morpholin-4-yl-1H-indol-3-yl)pyrrole 2,5-dione]",20 nM

# Next, values leading:
row,IC50,Compound
1,24 nM,"Cn1cc(C2=C(c3cn(C)c4cc(-c5nccs5)ccc34)C(=O)NC2=O)c2ccccc21 [Example 4a, 3-(1-Methyl-1H-indol-3-yl)-4-(1-methyl-6-thiazol-2-yl-1H-indol-3-yl)pyrrole-2,5-dione]"
2,60 nM,"Cn1ccnc1-c1ccc2c(C3=C(c4cn(C)c5ccccc45)C(=O)NC3=O)cn(C)c2c1 [Example 4b, 3-(1-Methyl-1H-indol-3-yl)-4-[1-methyl-6-(1-methyl-1H-imidazol-2-yl)-1H-indol-3-yl]-pyrrole-2,5-dione]"
3,20 nM,"Cn1cc(C2=C(c3cn(C)c4cc([N+](=O)[O-])ccc34)C(=O)NC2=O)c2ccc(-c3nccs3)cc21 [Example 4c, 3-(1-Methyl-6-nitro-1H-indol-3-yl)-4-(1-methyl-6-thiazol-2-yl-1H-indol-3-yl)pyrrole-2,5-dione]"
4,20 nM,"Cn1cc(C2=C(c3cn(C)c4cc([N+](=O)[O-])ccc34)C(=O)NC2=O)c2ccc(-c3cccs3)cc21 [Example 4d, 3-(1-Methyl-6-nitro-1H-indol-3-yl)-4-(1-methyl-6-thiophen-2-yl-1H-indol-3yl)-pyrrole-2,5-dione]"
5,30 nM,"Cn1cc(C2=C(c3cn(C)c4cc([N+](=O)[O-])ccc34)C(=O)NC2=O)c2ccc(-n3ccnc3)cc21 [Example 8a, 3-(6-Imidazol-1-yl-1-methyl-1H-indol-3-yl)-4-(1-methyl-6-nitro-1H-indol-3-yl)-pyrrole-2,5-dione]"
6,250 nM,"Cc1nccn1-c1ccc2c(C3=C(c4cn(C)c5cc([N+](=O)[O-])ccc45)C(=O)NC3=O)cn(C)c2c1 [Example 8b, 3-[1-Methyl-6-(2-methyl-imidazol-1-yl)-1H-indol-3-yl]-4-(1-methyl-6-nitro-1H-indol-3-yl)-pyrrole-2,5-dione]"
7,20 nM,"Cn1cc(C2=C(c3cn(C)c4cc([N+](=O)[O-])ccc34)C(=O)NC2=O)c2ccc(-n3cccn3)cc21 [Example 8c, 3-(1-Methyl-6-nitro-1H-indol-3-yl)-4-(1-methyl-6-pyrazol-1-yl-1H-indol-3-yl)pyrrole-2,5-dione]"
8,30 nM,"Cn1cc(C2=C(c3cn(C)c4cc(-n5cccn5)ccc34)C(=O)NC2=O)c2ccccc21 [Example 8d, 3(1-Methyl-1H-indol-3-yl)-4-(1-methyl-6-pyrazol-1-yl-1H-indol-3-yl)pyrrole-2,5-dione]"
9,25 nM,"Cn1cc(C2=C(c3cn(C)c4cc(-n5cccn5)ccc34)C(=O)NC2=O)c2ccc(Br)cc21 [Example 8e, 3-(6-Bromo-1-methyl-1H-indol-3-yl)-4-(1-methyl-6-pyrazol-1-yl-1H-indol-3-yl)pyrrole-2,5-dione]"
10,25 nM,"Cn1cc(C2=C(c3cn(C)c4cc(-n5ccnc5)ccc34)C(=O)NC2=O)c2ccc(Br)cc21 [Example 10a, 3-(6-Bromo-1-methyl-1H-indol-3-yl)-4-(6-imidazol-1-yl-1-methyl-1H-indol-3-yl)-pyrrole-2,5-dione]"
11,30 nM,"Cn1cc(C2=C(c3cn(C)c4cc(-n5ccnc5)ccc34)C(=O)NC2=O)c2ccc(C#N)cc21 [Example 10b, 3-[4-(6-Imidazol-1-yl-1-methyl-1H-indol-3-yl)-2,5-dioxo-2,5-dihydro-1H-pyrrole-3-yl]-1-methyl-1H-indole-6-carbonitrile]"
12,< 10 nM,"Cn1cc(C2=C(c3cn(C)c4cc([N+](=O)[O-])ccc34)C(=O)NC2=O)c2ccc(N3CCOCC3)cc21 [Example 12a, 3-(1-Methyl-6-morpholin-4-yl-1H-indol-3-yl)-4-(1-methyl-6-nitro-1H-indol-3-yl)pyrrole-2,5-dione]"
13,< 10 nM,"Cc1ccc2c(C3=C(c4cn(C)c5cc(N6CCOCC6)ccc45)C(=O)NC3=O)cn(C)c2c1 [Example 12b, 3(1,6-Dimethyl-1H-indol-3-yl)-4-(1-methyl-6-morpholin-4-yl-1H-indol-3-yl)pyrrole-2,5-dione]"
14,70 nM,"Cn1cc(C2=C(c3c[nH]c4ccccc34)C(=O)NC2=O)c2ccc(N3CCOCC3)cc21 [Example 12c, 3-(1H-Indol-3-yl)-4-(1-methyl-6-morpholin-4-yl-1H-indol-3-yl)pyrrole-2,5-dione]"
15,2 nM,"Cn1cc(C2=C(c3cn(C)c4cc([N+](=O)[O-])ccc34)C(=O)NC2=O)c2ccc(N3CCCC3)cc21 [Example 12d, 3-(1-Methyl-6-nitro-1H-indol-3-yl)-4-(1-methyl-6-pyrrolidin-1-yl-1H-indol-3-yl)pyrrole-2,5-dione]"
16,3 nM,"Cn1cc(C2=C(c3c[nH]c4cc(N5CCCC5)ccc34)C(=O)NC2=O)c2ccc(F)cc21 [Example 12e, 3-(6-Fluoro-1-methyl-1H-indol-3-yl)-4-(6-pyrrolidin-1-yl-1H-indol-3-yl)pyrrole-2,5-dione]"
17,< 3 nM,"Cn1cc(C2=C(c3c[nH]c4cc(N5CCCC5)ccc34)C(=O)NC2=O)c2ccc(Cl)cc21 [Example 12f, 3-(6-Chloro-1-methyl-1H-indol-3-yl)-4-(6-pyrrolidin-1-yl-1H-indol-3-yl)pyrrole-2,5-dione]"
18,20 nM,"COCn1cc(C2=C(c3cn(C)c4cc([N+](=O)[O-])ccc34)C(=O)NC2=O)c2ccc(N3CCCC3)cc21 [Example 12g, 3-(1-Methoxymethyl-6-pyrrolidin-1-yl-1H-indol-3-yl)-4-(1-methyl-6-nitro-1H-indol-3-yl)pyrrole-2,5-dione]"

# — patent publication US6281356A, “Substituted pyrroles” (Hoffmann-La Roche Inc., priority 2000, dated 2001)
